Consider 10 molecules from PubChem BioAssay (NCI).

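All cell lines were grown in 96-well plates and treated with compound for 48 hours. Here, GI50 denotes the concentration required for 50% inhibition of growth. TGI: total growth inhibition.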

Some test systems named below: SNB-78 CNS; XF 498 CNS; KM20L2 colon; HOP-18 NSCLC; RXF-631 renal; P388/ADR leukemia; P388 leukemia; SN12K1 renal.
Common to all, as to test: NCI tumour cell line growth inhibition, 48 h

Consider `Clc1ccc2c(Cl)nc(-c3ccccc3)nc2c1`, for which the figures for the TGI in the experiment on SNB-78 CNS, in the experiment with XF 498 CNS and with KM20L2 colon were 91 µM, 35.6 µM and 68 µM, respectively.

As to `Cc1cc(=O)[nH]c(NN2C(Cl)C(=O)C2c2c(O)ccc3ccccc23)n1` (stereo not drawn), the TGI amounted to 70.4 µM in the experiment on SNB-78 CNS, 53.5 µM in the experiment with HOP-18 NSCLC and 66.8 µM with KM20L2 colon.

In the case of `Cc1n(-c2ccccc2)c2c([n+]1Cc1ccc([N+](=O)[O-])cc1)C(=O)c1ccccc1C2=O`, the TGI came out at 6.88 µM in the experiment with SNB-78 CNS, 17.7 µM in the experiment with HOP-18 NSCLC and 9.84 µM in the experiment with KM20L2 colon.

As for `NC(N)=NCCCC(NCc1c2ccccc2[n+]([O-])c2ccccc12)C(=O)O` (stereo not drawn), the TGI with SNB-78 CNS, in the experiment on HOP-18 NSCLC, with RXF-631 renal and in the experiment with KM20L2 colon was > 100 µM throughout.

In the case of `CCCC(=O)[O-].CCCC(=O)[O-].N.N.N.N.[Co+3].[O-][Cl+3]([O-])([O-])[O-]`, in the experiment with SNB-78 CNS, the GI50 is > 100 µM and the TGI was > 100 µM. Besides, in the experiment with KM20L2 colon, the GI50 was > 100 µM and the TGI is > 100 µM.

Take `Cc1n(CC(C)C)c2c([n+]1CC(=O)c1ccc([N+](=O)[O-])cc1)C(=O)c1ccccc1C2=O`: the TGI in the experiment with SNB-78 CNS turned out to be 0.107 µM; with P388/ADR leukemia, 61.3 µM; in the experiment on HOP-18 NSCLC, 0.202 µM; with P388 leukemia it was 0.563 µM; in the experiment on SN12K1 renal, 0.279 µM; in the experiment on KM20L2 colon it was 0.113 µM.

Regarding `COc1cc(O)c2c(c1O)C(=O)c1cc(C)ncc1C2=O`, the TGI in the experiment with SNB-78 CNS, in the experiment on HOP-18 NSCLC, with XF 498 CNS and with KM20L2 colon was > 50 µM in each case.

As to `CCCCCCCSCC1OC(n2cnc3c(N)ncnc32)C(O)C1O` (stereo not drawn), the TGI in the experiment with SNB-78 CNS was > 100 µM; in the experiment with HOP-18 NSCLC, 68.2 µM; in the experiment on XF 498 CNS it was 97.6 µM; in the experiment with KM20L2 colon it was > 100 µM.

Turning to `C=CCCCCn1c2ccccc2c2c(C)c3c[n+](C)ccc3c(C)c21`, the TGI with HOP-18 NSCLC was 1.15 µM; in the experiment with KM20L2 colon it was 2.31 µM.

Consider `Oc1c2c(c3c4c1N=CC=4CCN=3)C1(C=C(Br)C(O)C(Br)=C1)CCN2` (stereo not drawn), for which the TGI in the experiment on SNB-78 CNS was found to be 10.4 µM; in the experiment with P388/ADR leukemia it was 4.81 µM; in the experiment with HOP-18 NSCLC, 23.5 µM; with SN12K1 renal, 10.7 µM; in the experiment on KM20L2 colon, 3.26 µM.
